# Tests used:
# Experiment in all cases: NCI five-dose SRB growth assay
# Assay type in all cases: cell-based
# MALME-3M = settings: Homo sapiens; MALME-3M (Melanoma), 48 h
# BT-549 = settings: Homo sapiens; BT-549 (Breast Cancer), 48 h
# SF-539 = settings: Homo sapiens; SF-539 (CNS Cancer), 48 h
# UACC-62 = settings: Homo sapiens; UACC-62 (Melanoma), 48 h
# SK-MEL-28 = settings: Homo sapiens; SK-MEL-28 (Melanoma), 48 h
# HCT-15 = settings: Homo sapiens; HCT-15 (Colon Cancer), 48 h
# U251 = settings: Homo sapiens, U-251; U251 (CNS Cancer), 48 h
# KM12 = settings: Homo sapiens; KM12 (Colon Cancer), 48 h
# LOX IMVI = settings: Homo sapiens; LOX IMVI (Melanoma), 48 h
# NCI-H322M = settings: Homo sapiens; NCI-H322M (Non-Small Cell Lung Cancer), 48 h
# MDA-MB-231/ATCC = settings: Homo sapiens; MDA-MB-231/ATCC (Breast Cancer), 48 h
# HOP-92 = settings: Homo sapiens; HOP-92 (Non-Small Cell Lung Cancer), 48 h
# ACHN = settings: Homo sapiens; ACHN (Renal Cancer), 48 h
# SN12C = settings: Homo sapiens; SN12C (Renal Cancer), 48 h
# K-562 = settings: Homo sapiens, K562; K-562 (Leukemia), 48 h
# MDA-MB-468 = settings: Homo sapiens; MDA-MB-468 (Breast Cancer), 48 h
# UO-31 = settings: Homo sapiens; UO-31 (Renal Cancer), 48 h
# TK-10 = settings: Homo sapiens; TK-10 (Renal Cancer), 48 h
# M14 = settings: Homo sapiens; M14 (Melanoma), 48 h
# IGROV1 = settings: Homo sapiens, IGROV-1; IGROV1 (Ovarian Cancer), 48 h
# COLO 205 = settings: Homo sapiens; COLO 205 (Colon Cancer), 48 h
# NCI/ADR-RES = settings: Homo sapiens; NCI/ADR-RES (Ovarian Cancer), 48 h
# SW-620 = settings: Homo sapiens; SW-620 (Colon Cancer), 48 h
# NCI-H460 = settings: Homo sapiens; NCI-H460 (Non-Small Cell Lung Cancer), 48 h
# PRMI-8226 = settings: Homo sapiens; PRMI-8226 (Leukemia), 48 h
# HL-60(TB) = settings: Homo sapiens; HL-60(TB) (Leukemia), 48 h
# SNB-75 = settings: Homo sapiens; SNB-75 (CNS Cancer), 48 h
# SK-OV-3 = settings: Homo sapiens; SK-OV-3 (Ovarian Cancer), 48 h
# HS 578T = settings: Homo sapiens; HS 578T (Breast Cancer), 48 h
# NCI-H23 = settings: Homo sapiens; NCI-H23 (Non-Small Cell Lung Cancer), 48 h
# SNB-19 = settings: Homo sapiens; SNB-19 (CNS Cancer), 48 h
# SF-268 = settings: Homo sapiens; SF-268 (CNS Cancer), 48 h
# 786-0 = settings: Homo sapiens; 786-0 (Renal Cancer), 48 h
# DU-145 = settings: Homo sapiens; DU-145 (Prostate Cancer), 48 h
# NCI-H522 = settings: Homo sapiens; NCI-H522 (Non-Small Cell Lung Cancer), 48 h
# HCT-116 = settings: Homo sapiens; HCT-116 (Colon Cancer), 48 h
# PC-3 = settings: Homo sapiens; PC-3 (Prostate Cancer), 48 h
# CCRF-CEM = settings: Homo sapiens; CCRF-CEM (Leukemia), 48 h
# HT29 = settings: Homo sapiens, HT-29; HT29 (Colon Cancer), 48 h
compound,measurement,setting,value
CCn1cc(C(=O)O)c(=O)c2cc(F)c(N3CCN(S(=O)(=O)c4cccc5ccccc45)CC3)cc21 [Compound 7a],GI50,MALME-3M,2.83 µM
same,GI50,BT-549,3.7 µM
same,GI50,SF-539,2.43 µM
same,GI50,UACC-62,2.25 µM
same,GI50,SK-MEL-28,6.09 µM
same,GI50,HCT-15,3.15 µM
same,GI50,U251,3.29 µM
same,GI50,KM12,2.96 µM
same,GI50,LOX IMVI,1.63 µM
same,GI50,NCI-H322M,2.6 µM
same,GI50,MDA-MB-231/ATCC,1.91 µM
same,GI50,HOP-92,1.25 µM
same,GI50,ACHN,2.88 µM
same,GI50,SN12C,2.59 µM
same,GI50,K-562,3.93 µM
same,GI50,MDA-MB-468,2.52 µM
same,GI50,UO-31,2.21 µM
same,GI50,TK-10,7.6 µM
same,GI50,M14,4.37 µM
same,GI50,IGROV1,2.47 µM
same,GI50,COLO 205,2.02 µM
same,GI50,NCI/ADR-RES,3.2 µM
same,GI50,SW-620,3.57 µM
same,GI50,NCI-H460,3.43 µM
same,GI50,PRMI-8226,2.79 µM
same,GI50,HL-60(TB),2.58 µM
same,GI50,SNB-75,1.89 µM
same,GI50,SK-OV-3,3.11 µM
same,GI50,HS 578T,2.68 µM
same,GI50,NCI-H23,3.13 µM
same,GI50,SNB-19,3.47 µM
same,GI50,SF-268,4.39 µM
same,GI50,786-0,4.5 µM
same,GI50,DU-145,3.97 µM
same,GI50,NCI-H522,2.78 µM
same,GI50,HCT-116,3.88 µM
same,GI50,PC-3,2.66 µM
same,GI50,CCRF-CEM,3.67 µM
same,GI50,HT29,3.95 µM

# From patent EP2987533B1, “7-substituted piperazin-1-yl fluoroquinolone compounds, their use in the treatment of cancer, pharmaceutical compositions and a method for preparation” (priority 2014, dated 2016)
